In US20260256925A1, “INDAZOLE DERIVATIVES AS ESTROGEN RECEPTOR DEGRADERS” (REGENTS OF THE UNIVERSITY OF MICHIGAN, priority 2022, published 2026) one finds DC50 and IC50 data, which are given here for twelve compounds.

SMILES strings stand for the structures.

One assay deals with T1, ER (Homo sapiens, UniProt P03372).
T1 construct: endogenous in cells; probably T47D or MCF-7
T1 sequence (P03372 1-595): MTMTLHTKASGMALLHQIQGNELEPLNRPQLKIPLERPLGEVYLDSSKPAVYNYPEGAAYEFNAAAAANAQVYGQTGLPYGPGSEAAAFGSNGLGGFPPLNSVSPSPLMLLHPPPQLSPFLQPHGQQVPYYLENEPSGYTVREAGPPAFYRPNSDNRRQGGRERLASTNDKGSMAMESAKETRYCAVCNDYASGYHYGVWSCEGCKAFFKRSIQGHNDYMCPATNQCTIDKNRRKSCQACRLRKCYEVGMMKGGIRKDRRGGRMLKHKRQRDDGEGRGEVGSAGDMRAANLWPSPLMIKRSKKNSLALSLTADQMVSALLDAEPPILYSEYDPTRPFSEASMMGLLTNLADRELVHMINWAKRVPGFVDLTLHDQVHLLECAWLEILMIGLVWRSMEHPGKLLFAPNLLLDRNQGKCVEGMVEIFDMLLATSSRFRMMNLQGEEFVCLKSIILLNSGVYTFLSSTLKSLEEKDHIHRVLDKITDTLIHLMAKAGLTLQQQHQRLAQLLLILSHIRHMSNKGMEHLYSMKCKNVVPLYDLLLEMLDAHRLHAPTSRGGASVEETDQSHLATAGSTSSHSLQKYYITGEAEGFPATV
Briefly: In-cell western blot analysis, relative ER percentage (compounds B1-B126). The note with it: ER degradation, 16 hours, read-out: ICW DC50. The assay is classed as cell-based. An outline of the steps:
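Cells seeded at 40,000 or 10,000 per well overnight were treated with compound (final 0.5% DMSO) for 16 hours, then fixed with formaldehyde. ER was detected with primary antibodies and anti-rabbit-680/anti-mouse-800 secondaries on a CLX reader. Signal is expressed relative to untreated and DMSO wells set as 100%.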

Assay [1] is described as follows: Cell growth assay, WST-8 (compounds B1-B126). Type of assay: cell-based. The following applies: 96 h; T47D cell line, WST-8, 4 days; read-out: Cell growth inhibition in T47D cell line IC50. An outline of the steps: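 Cells seeded at 1500/well overnight, treated one day later with compound doses for 4 days, then 10% WST-8 added for 2.5 h at 37° C in CO2. Absorbance at 450 nm, expressed relative to vehicle control over three independent repeats.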
Background: Formazan colour is commonly taken as a measure of viable cells.

For orientation: DC50 means the midpoint of the concentration-degradation curve. The IC50 is the concentration that inhibits the measured activity by half. As to `COc1cc(N2CCC3(CC2)CC(CN2CCN4c5ccc6c(c5OC[C@H]4C2)CN([C@H]2CCC(=O)NC2=O)C6=O)CO3)ccc1[C@@H]1c2ccc3[nH]ncc3c2C[C@@H](C)N1CC(F)F` (stereo partly drawn) [Compound B81, (3S)-3-((5aR)-7-((8-(4-((6S,8R)-7-(2,2-difluoroethyl)-8-methyl-6,7,8,9-tetrahydro-3H-pyrazolo[4,3-f]isoquinolin-6-yl)-3-methoxyphenyl)-1-oxa-8-azaspiro[4.5]decan-3-yl)methyl)-1-oxo-1,3,5,5a,6,7,8,9-octahydro-2H-pyrazino[1′,2′:4,5][1,4]oxazino[2,3-e]isoindol-2-yl)piperidine-2,6-dione], on ER, the 50% degradation concentration (DC50) is under 10 nM. The IC50 in assay [1] is under 1 nM.

With `COc1cc(N2CCC3(CC2)CC(CN2CCN4c5ccc6c(c5OC[C@H]4C2)CN(C2CCC(=O)NC2=O)C6=O)C3)ccc1[C@@H]1c2ccc3[nH]ncc3c2C[C@@H](C)N1CC(F)F` (stereo partly drawn) [Compound B82, 3-((R)-7-((7-(4-((6S,8R)-7-(2,2-difluoroethyl)-8-methyl-6,7,8,9-tetrahydro-3H-pyrazolo[4,3-f]isoquinolin-6-yl)-3-methoxyphenyl)-7-azaspiro[3.5]nonan-2-yl)methyl)-1-oxo-1,3,5,5a,6,7,8,9-octahydro-2H-pyrazino[1′,2′:4,5][1,4]oxazino[2,3-e]isoindol-2-yl)piperidine-2,6-dione], the DC50 at ER was 10 to 100 nM. Moreover, the IC50 in assay [1] was under 1 nM.

On to `COc1cc(N2CC3(CCC(CN4CCN5c6ccc7c(c6OC[C@H]5C4)CN(C4CCC(=O)NC4=O)C7=O)CC3)C2)ccc1[C@@H]1c2ccc3[nH]ncc3c2C[C@@H](C)N1CC(F)F` (stereo partly drawn) [Compound B84, 3-((R)-7-((2-(4-((6S,8R)-7-(2,2-difluoroethyl)-8-methyl-6,7,8,9-tetrahydro-3H-pyrazolo[4,3-f]isoquinolin-6-yl)-3-methoxyphenyl)-2-azaspiro[3.5]nonan-7-yl)methyl)-1-oxo-1,3,5,5a,6,7,8,9-octahydro-2H-pyrazino[1′,2′:4,5][1,4]oxazino[2,3-e]isoindol-2-yl)piperidine-2,6-dione], for which, at ER, the 50% degradation concentration (DC50) is over 100 nM. Further, in assay [1], the IC50 is over 10 nM.

`COc1cc(N2CC3(CCC(CN4CCN5c6ccc7c(c6OC[C@@H]5C4)CN(C4CCC(=O)NC4=O)C7=O)CC3)C2)ccc1[C@@H]1c2ccc3[nH]ncc3c2C[C@@H](C)N1CC(F)F` (stereo partly drawn) [Compound B85, 3-((S)-7-((2-(4-((6S,8R)-7-(2,2-difluoroethyl)-8-methyl-6,7,8,9-tetrahydro-3H-pyrazolo[4,3-f]isoquinolin-6-yl)-3-methoxyphenyl)-2-azaspiro[3.5]nonan-7-yl)methyl)-1-oxo-1,3,5,5a,6,7,8,9-octahydro-2H-pyrazino[1′,2′:4,5][1,4]oxazino[2,3-e]isoindol-2-yl)piperidine-2,6-dione]: the DC50 on ER was 10 to 100 nM. Also, the IC50 in assay [1] was over 10 nM.

`C[C@@H]1Cc2c(ccc3[nH]ncc23)[C@@H](c2ccc(N3CC4(CCC(CN5CCN6c7ccc8c(c7OC[C@H]6C5)CN(C5CCC(=O)NC5=O)C8=O)CC4)C3)cn2)N1CC(F)F` (stereo partly drawn) [Compound B86, 3-((R)-7-((2-(6-((6S,8R)-7-(2,2-difluoroethyl)-8-methyl-6,7,8,9-tetrahydro-3H-pyrazolo[4,3-f]isoquinolin-6-yl)pyridin-3-yl)-2-azaspiro[3.5]nonan-7-yl)mcthyl)-1-oxo-1,3,5,5a,6,7,8,9-octahydro-2H-pyrazino[1′,2′:4,5][1,4]oxazino[2,3-e]isoindol-2-yl)piperidine-2,6-dione]: the DC50 at ER is under 10 nM. Besides, in assay [1], the IC50 lay within 1 to 10 nM.

On to `C[C@@H]1Cc2c(ccc3[nH]ncc23)[C@@H](c2ccc(N3CC4(CCC(CN5CCN6c7ccc8c(c7OC[C@@H]6C5)CN(C5CCC(=O)NC5=O)C8=O)CC4)C3)cn2)N1CC(F)F` (stereo partly drawn) [Compound B87, 3-((S)-7-((2-(6-((6S,8R)-7-(2,2-difluoroethyl)-8-methyl-6,7,8,9-tetrahydro-3H-pyrazolo[4,3-f]isoquinolin-6-yl)pyridin-3-yl)-2-azaspiro[3.5]nonan-7-yl)methyl)-1-oxo-1,3,5,5a,6,7,8,9-octahydro-2H-pyrazino[1′,2′:4,5][1,4]oxazino[2,3-e]isoindol-2-yl)piperidine-2,6-dione], for which the DC50 at ER was under 10 nM. Also, the IC50 in assay [1] fell in the range of 1 to 10 nM.

Regarding `C[C@@H]1Cc2c(ccc3[nH]ncc23)[C@@H](c2ccc(N3CC4(CCC(CN5CCN6c7cc8c(cc7OC[C@@H]6C5)C(=O)N(C5CCC(=O)NC5=O)C8)CC4)C3)cn2)N1CC(F)F` (stereo partly drawn) [Compound B88, 3-((S)-3-((2-(6-((6S,8R)-7-(2,2-difluoroethyl)-8-methyl-6,7,8,9-tetrahydro-3H-pyrazolo[4,3-f]isoquinolin-6-yl)pyridin-3-yl)-2-azaspiro[3.5]nonan-7-yl)methyl)-8-oxo-1,2,3,4,4a,5,8,10-octahydro-9H-pyrazino[1′,2′:4,5][1,4]oxazino[2,3-f]isoindol-9-yl)piperidine-2,6-dione], the DC50 at ER was under 10 nM. For the same compound, in assay [1], the IC50 fell in the range of 1 to 10 nM.

Take `C[C@@H]1Cc2c(ccc3[nH]ncc23)[C@@H](c2ccc(N3CCC4(CC3)CC(CN3CCN5c6ccc(C(=O)N[C@H]7CCC(=O)NC7=O)nc6OC[C@H]5C3)C4)cn2)N1CC(F)(F)F` [Compound B89, (R)-N-((S)-2,6-dioxopiperidin-3-yl)-3-((7-(6-((6S,8R)-8-methyl-7-(2,2,2-trifluoroethyl)-6,7,8,9-tetrahydro-3H-pyrazolo[4,3-f]isoquinolin-6-yl)pyridin-3-yl)-7-azaspiro[3.5]nonan-2-yl)methyl)-1,2,3,4,4a,5-hexahydropyrazino[1,2-d]pyrido[2,3-b][1,4]oxazine-8-carboxamide]: the DC50 on ER was over 100 nM. Also, the IC50 in assay [1] was over 10 nM.

Turning to `C[C@@H]1Cc2c(ccc3[nH]ncc23)[C@@H](c2ccc(N3CCC(CN4CCN5c6ccc(C(=O)N[C@H]7CCC(=O)NC7=O)nc6OC[C@H]5C4)CC3)cn2)N1CC(F)(F)F` [Compound B90, (R)-N-((S)-2,6-dioxopiperidin-3-yl)-3-((1-(6-((6S,8R)-8-methyl-7-(2,2,2-trifluoroethyl)-6,7,8,9-tetrahydro-3H-pyrazolo[4,3-f]isoquinolin-6-yl)pyridin-3-yl)piperidin-4-yl)methyl)-1,2,3,4,4a,5-hexahydropyrazino[1,2-d]pyrido[2,3-b][1,4]oxazine-8-carboxamide], the DC50 at ER lay in the range of 10 to 100 nM. In assay [1], the half-inhibitory concentration (IC50) lay in the range of 1 to 10 nM.

Consider `C[C@@H]1Cc2c(ccc3[nH]ncc23)[C@@H](c2ccc(N3CCC4(CC3)CC(CN3CCN5c6ccc7c(c6OC[C@H]5C3)CN(C3CCC(=O)NC3=O)C7=O)CO4)cn2)N1CC(F)(F)F` (stereo partly drawn) [Compound B91, 3-((5aR)-7-((8-(6-((6S,8R)-8-methyl-7-(2,2,2-trifluoroethyl)-6,7,8,9-tetrahydro-3H-pyrazolo[4,3-f]isoquinolin-6-yl)pyridin-3-yl)-1-oxa-8-azaspiro[4.5]decan-3-yl)methyl)-1-oxo-1,3,5,5a,6,7,8,9-octahydro-2H-pyrazino[1′,2′:4,5][1,4]oxazino[2,3-e]isoindol-2-yl)piperidine-2,6-dione], for which the DC50 at ER is under 10 nM. Moreover, the IC50 in assay [1] lay in the range of 1 to 10 nM.

For the compound `C[C@@H]1Cc2c(ccc3[nH]ncc23)[C@@H](c2ccc(N3CCC4(CC3)CC(CN3CCN5c6ccc(C(=O)N(C)C7CCC(=O)NC7=O)nc6OC[C@H]5C3)C4)cn2)N1CC(F)(F)F` (stereo partly drawn) [Compound B92, (4aR)-N-(2,6-dioxopiperidin-3-yl)-N-methyl-3-((7-(6-((6S,8R)-8-methyl-7-(2,2,2-trifluoroethyl)-6,7,8,9-tetrahydro-3H-pyrazolo[4,3-f]isoquinolin-6-yl)pyridin-3-yl)-7-azaspiro[3.5]nonan-2-yl)methyl)-1,2,3,4,4a,5-hexahydropyrazino[1,2-d]pyrido[2,3-b][1,4]oxazine-8-carboxamide], on ER, the DC50 is over 100 nM. The IC50 in assay [1] is over 10 nM.

Consider `C[C@@H]1Cc2c(ccc3[nH]ncc23)[C@@H](c2ccc(N3CCC4(CC3)CC(CN3CCN5c6ccc(C(=O)N[C@H]7CCC(=O)NC7=O)nc6OC[C@H]5C3)CO4)cn2)N1CC(F)(F)F` (stereo partly drawn) [Compound B93, (4aR)-N-((S)-2,6-dioxopiperidin-3-yl)-3-((8-(6-((6S,8R)-8-methyl-7-(2,2,2-trifluoroethyl)-6,7,8,9-tetrahydro-3H-pyrazolo[4,3-f]isoquinolin-6-yl)pyridin-3-yl)-1-oxa-8-azaspiro[4.5]decan-3-yl)methyl)-1,2,3,4,4a,5-hexahydropyrazino[1,2-d]pyrido[2,3-b][1,4]oxazine-8-carboxamide], for which the DC50 at ER was in the range of 10 to 100 nM. In addition, the IC50 in assay [1] lay in the range of 1 to 10 nM.
